# Experimental data published in patent US12090132B2, “Tris DBA pharmaceutical composition and its use for treating autoimmune diseases” (National Defense Medical Center, priority 2019, dated 2024).
# “Also recorded” adds a separate entry of the source.
# Tests used:
# MAPK (pERK, pJNK, pp38) = experiment: Western Blot of MAPK phosphorylation in J774A.1 cells; assay type: cell-based, mouse
# NLRP3 inflammasome = NLRP3 inflammasome activation in LPS/ATP-treated J774A.1 cells (ELISA, Western Blot); assay type: cell-based, mouse
# Protocol: Each group was treated with 0, 0.1, 0.5 and 1 μM Tris DBA culture medium for 30 minutes, reacting with 1 μg/ml lipopolysaccharide (LPS) of NLRP3 inflammasome typical activator for 5.5 hours. Finally, it reacted with 5 mM ATP reagent for 30 minutes, the IL-1β and caspase-1 cytokines were tested by ELISA.
# The protein expression was analyzed by Western Blot, the cells and Tris DBA were cultured for 1 hour, and cultured with two groups with LPS or without LPS respectively for 5.5 hours to test the expression level of cytokines (NLRP3, caspase-1, pro-caspase-1, pro-IL-1β, pro-IL-1β) in cells. This step refers to the data from prior literature (Chang Y P, et. al. 2015. Resveratrol inhibits NLRP3 inflammasome activation by preserving mitochondrial integrity and augmenting autophagy.
# NF-κB = NF-κB activation in J774A.1 cells; assay type: cell-based, mouse; details: FIG. 1I
# [1] = tested on: autophagy factors Atg5, LC3BI/II, p62; experiment: Autophagy factor expression in J774A.1 cells (Western Blot); assay type: cell-based, mouse; details: concentration-dependent
# [2] = tested on: CD4 T cells of OVA-TCR transgenic mouse; experiment: Antigen-specific T cell proliferation ([3H]-thymidine) and IFN-γ/IL-4, OVA-TCR CD4 T cells cultured with BMDCs; assay type: cell-based; details: FIG. 3L
# Protocol: The CD4 T cells of OVA-TCR transgenic mouse and T cell proliferation of antigenic specificity are used to analyze the manifestation of dendritic cell antigen. The OVA323-339 peptide reacts with LPS and LPS+Tris DBA groups for 16 hours respectively. The CD4 T cells abstracted from OVA-TCR transgenic mouse are cultured with BMDCs as per ratios of 1:0, 1:1, 1:2 and 1:4, the T cell proliferation is determined by radioactive [3H]-thymidine, and the processed cell supernatant is used for testing the IFN-γ and IL-4 expression levels in Th1 and Th2 cells according to the operational manual of commercial reagent kit.
# ASLN mouse (NZB/WF1) [3] = experiment: T cell subsets in ASLN mouse model (NZB/WF1); assay type: in vivo; details: Week 5, FIG. 3C
# Protocol: (§1) Improve mouse animal model of accelerated aggravated lupus nephritis8-week-old female mouse (NZB/WF1) model is used for experiment in this embodiment, the mice are randomly divided into two groups (treatment group Tris DBA, negative control group Katimin-1), 7 mice per group, the LPS (0.6 mg/kg) is injected into the abdominal cavity of mouse twice a week, the Tris DBA (30 mg/kg) or Katimin-1® is applied by intraperitoneal injection in one week after injection, the mice are sacrificed in Week 3 and Week 5 respectively.
# ASLN mouse (NZB/WF1) [4] = experiment: Urine protein and renal function in ASLN mouse model; assay type: in vivo; details: 30 mg/kg intraperitoneal
# Protocol: as §1
# The mouse urine is collected weekly, and the serum is collected when the mice are sacrificed in Week 3 and Week 5, the changes in three biochemical indexes, which are creatinine (Cr), BUN and albumin/creatinine ratio (ACR) in urine, are tested according to the operational manual of commercial reagent kit, so as to analyze the changes in renal function.
# ASLN mouse (NZB/WF1) [5] = experiment: Renal pathology (PAM, IHC) and autoantibody in ASLN mouse model; assay type: in vivo
# Protocol: as §1
# When the mice are sacrificed in Week 3 and Week 5, the renal tissue is taken for analysis, the renal cortex tissue is stained by PAM to analyze the content of immunoglobulin G (IgG) and serum complement C3, and the content of F4/80+ macrophages and CD30+ T cells is analyzed by IHC, so as to detect specific antigen molecules in tissue slice and to perform positioning, qualitative and quantitative analyses.
# ASLN mouse kidney = experiment: Protein expression in renal tissue of ASLN mouse; assay type: in vivo
# Protocol: as §1
# The renal tissue is thoroughly mixed with RIPA lysis, the expression levels of proteins Atg5, LC3B, p62, NLRP3, caspase-1, IL-1β, p47phox, NQO1, pERK, pJNK and pp38 are tested by gel electrophoresis (SDS-page).
# ASLN mouse (NZB/WF1) [6] = experiment: ROS (superoxide anion) in urine, serum and renal tissue of ASLN mouse; assay type: in vivo; details: Week 3 and Week 5, versus Katimin-1 group
# Protocol: as §1
# The ASLN mouse urine, serum and renal tissue obtained in Embodiment 2.4 are used to test antioxidant activity. The ROS content is tested according to operational manual of commercial reagent kit, the fluorescence probe dihydroethidium (Dihydroethidium, DHE) reacts with mouse urine and serum. The experimental results are represented as RLU/15 min/ml; the renal tissue is represented as RLU/15 min/mg dry weight.
# BMDM cells = experiment: Mitochondrion ROS in mouse BMDM; assay type: cell-based; details: LPS 1 μg/mL 5.5 hours, ATP 30 minutes, FIGS. 6D-6E
# Protocol: The generation of mitochondrion ROS in the mouse BMDM is tested by using mitosox principle. There are two experimental groups (treatment group Tris DBA, negative control group NAC), reacting with 1 μg/mL LPS and cells for 5.5 hours, treated with ATP for 30 minutes, treated with commercial reagent H2DCFDA for one hour, so as to evaluate the cellular infiltration fluorescence intensity.
# ASLN mouse (NZB/WF1) [7] = experiment: Renal pathology (PAM, IHC) and autoantibody in ASLN mouse model; assay type: in vivo; details: ASLN mouse kidney
smiles,measurement,setting,value
O=C(/C=C/c1ccccc1)/C=C/c1ccccc1.O=C(/C=C/c1ccccc1)/C=C/c1ccccc1.O=C(/C=C/c1ccccc1)/C=C/c1ccccc1.[Pd].[Pd] [Tris DBA],pERK expression level,"MAPK (pERK, pJNK, pp38); FIG. 1A",can inhibit
same,pJNK expression level,"MAPK (pERK, pJNK, pp38); FIG. 1B",can inhibit
same,pp38 expression level,"MAPK (pERK, pJNK, pp38); FIG. 1C",can inhibit
same,NLRP3 protein expression level,NLRP3 inflammasome; FIG. 1F,can inhibit
same,pro-IL-1β protein expression level,NLRP3 inflammasome; FIG. 1G,can inhibit
same,expression level of IL-1β,NLRP3 inflammasome; FIGS. 2J-2K,can inhibit
same,"cytokines induced by LPS (IL-1β, caspase-1, pro-IL-1β) of cell supernatant","NLRP3 inflammasome; Western Blot, FIG. 2B",can inhibit
same,activation of NLRP3 inflammasome (IL-1β induced by LPS),"NLRP3 inflammasome; after treatment with ATP, FIG. 2A",inhibit
same,NF-κB activation,NF-κB,will not affect; also recorded: fails to inhibit
same,LC3BI/II expression level,"[1]; FIG. 2C, 2E",promotes
same,p62 expression level,"[1]; FIG. 2C, 2F",promotes
same,Atg5 expression level,[1]; FIG. 2C-2D,promotes
same,proliferation of T cells,[2],inhibit
same,regulated T cells FoxP3+CD25+CD4+,ASLN mouse (NZB/WF1) [3],will not inhibit; also recorded: significantly increase
same,BUN,"ASLN mouse (NZB/WF1) [4]; favorable inhibitory effect in Week 3, FIG. 4A",inhibits
same,creatinine,"ASLN mouse (NZB/WF1) [4]; favorable inhibitory effect in Week 3, FIG. 4B",inhibits
same,urine ACR,"ASLN mouse (NZB/WF1) [4]; favorable inhibitory effect in Week 3, FIG. 4C",inhibits
same,content of immunoglobulin G (IgG),ASLN mouse (NZB/WF1) [5]; ASLN mouse kidney,can obviously inhibit
same,content of serum complement C3,ASLN mouse (NZB/WF1) [5]; ASLN mouse kidney,can obviously inhibit
same,content of F4/80+ macrophages,"ASLN mouse (NZB/WF1) [5]; ASLN mouse kidney, IHC",can obviously inhibit
same,glomerular cell proliferation,"ASLN mouse (NZB/WF1) [5]; ASLN mouse renal tissue, PAM stain, FIG. 4E",obviously inhibits
same,glomerular crescent structure proliferation,"ASLN mouse (NZB/WF1) [5]; ASLN mouse renal tissue, PAM stain, FIG. 4F",obviously inhibits
same,neutrophilic infiltration,"ASLN mouse (NZB/WF1) [5]; ASLN mouse renal tissue, PAM stain, FIG. 4G",obviously inhibits
same,fibrinoid necrosis,"ASLN mouse (NZB/WF1) [5]; ASLN mouse renal tissue, PAM stain, FIG. 4H",obviously inhibits
same,renal interstitial inflammation,"ASLN mouse (NZB/WF1) [5]; ASLN mouse renal tissue, PAM stain, FIG. 4I",obviously inhibits
same,glomerulonephritis,"ASLN mouse (NZB/WF1) [5]; ASLN mouse renal tissue, PAM stain, FIG. 4J",obviously inhibits
same,anti-dsDNA autoantibody,"ASLN mouse (NZB/WF1) [5]; ASLN mouse, FIG. 4O",inhibits
same,NLRP3,ASLN mouse kidney; FIG. 5B,inhibitory effect
same,IL-1β,ASLN mouse kidney; FIG. 5C,inhibitory effect
same,Atg5,ASLN mouse kidney; FIG. 5G,inhibitory effect
same,LC3B I/II,ASLN mouse kidney; FIG. 5H,inhibitory effect
same,content of p47NADPH,ASLN mouse kidney; FIG. 5J,can inhibit
same,manifestation of NQO1,ASLN mouse kidney; FIG. 5K,can promote
same,activity of GPx,ASLN mouse kidney; FIG. 5L,can enhance
same,"expression level of superoxide anion, kidney",ASLN mouse (NZB/WF1) [6]; FIG. 6A,lower
same,"expression level of superoxide anion, serum",ASLN mouse (NZB/WF1) [6]; FIG. 6B,lower
same,"expression level of superoxide anion, urine",ASLN mouse (NZB/WF1) [6]; FIG. 6C,lower
same,generation of mitochondria ROS,BMDM cells,can inhibit
same,content of CD3+T cells,ASLN mouse (NZB/WF1) [7],can obviously inhibit
